Source: patent US20260097022A1, “COMPOUNDS AND USES THEREOF” (Integrated Biosciences, Inc., priority 2023, published 2026)

These molecules were tested on etoposide-treated IMR-90 cells (assay: Etoposide-induced senescence model, resazurin cell viability (screen and dose-response)). Conditions: etoposide-induced senescence model; ratio of IC50 values between etoposide- and DMSO-treated IMR-90 fibroblasts.
Assay type: cell-based, human
Method: Cell culture. Human lung fibroblast (IMR-90) cells were obtained from ATCC (CCL-186) and passaged less than 10 times (less than 30 population doublings) for all experiments described in this example, with the exception of high-passage cells used in the model of replicative senescence (see the section on Replicative senescence below). Cells were cultured in growth media comprising Eagle's Minimum Essential Medium (EMEM: ATCC 30-2003) supplemented with 10% fetal bovine serum (FBS: Thermo Fisher 16140071) and 1% penicillin-streptomycin (Thermo Fisher 15070063). Cells were incubated in a humidity-controlled incubator at 37° C., with 5% CO2. Cells were detached using trypsin-EDTA (0.05%; Gibco 25300120).
Etoposide-induced senescence. IMR-90 cells were cultured as described above. At between 30 to 50% confluence, the media was replaced with complete growth media containing vehicle (0.5% dimethyl sulfoxide: DMSO, MilliporeSigma D5879) or complete growth media containing 50 μM etoposide (prepared as a 1:200 dilution of a 10 mM stock solution in DMSO; etoposide, MilliporeSigma E1383). Cells were treated for 2 days, after which the media was replaced with fresh growth media and cells were allowed to recover for 4 days. Cells were then plated as described below.
Chemical screening. For all screening experiments. 99 μL of cells were plated into each well of a 96-well clear flat-bottom, black polystyrene tissue-culture-treated plate (Corning 3904) at a density of ˜10+ cells/well. Plates were incubated overnight for adhesion. The day after plating. 1 μL of each compound, prepared as either a 1 mM stock solution in DMSO (10 μM final concentration screen) or 0.1 mM stock solution in DMSO (1 μM final concentration screen), was added to each well using an Agilent Bravo liquid handler. A built-in slow mixing step involving aspirating and dispensing was used to enhance distribution of the added compounds in solution. Cells were incubated for 3 days, after which resazurin (MilliporeSigma R^7017) was added to each well to a final concentration of 0.15 mM. After an additional 1 day of incubation, the fluorescence excitation/emission at 550/590 nm was read using a SpectraMaxR M3 plate reader and manufacturer software (SoftMax Pro R 6). Experiments were performed in biological duplicate.
Three-fold serial dilutions of compound were prepared in DMSO, then added to cell plates (final concentration of DMSO. 1%). Cell viability was then assayed as detailed above, and resazurin fluorescence values were linearly interpolated with respect to values from empty and positive control (non-treatment) wells. Experiments were performed in biological duplicate each on two independent occasions. When possible, chemical stocks from commercial suppliers were used: econazole nitrate (Cayman Chemical 20223), artenimol (Cayman Chemical 19846), and ABT-263 (Cayman Chemical 11500) were from Cayman Chemical, and dehydrodeguelin was aliquoted from the screening library.
Calculation of cellular viability values in dose-response curves. […] For each sample, the fluorescence intensity value was normalized by the mean of two untreated control values. Cellular viability values are therefore indicated as fractions of the cellular viability of untreated controls. Vehicle (1% DMSO) control values are included in each dose-response curve. Experiments were performed in biological duplicate each on two independent occasions.
Calculation of baseline cellular viability values. […] Additionally, baseline cellular viability values were calculated for untreated cells at the start of the experiment. Resazurin was added to a final concentration of 0.15 mM on the day of seeding (corresponding to day 0 in FIG. 7).

Row | Compound | Therapeutic Index (TI)
1 | CC(=O)c1ccc(NC(=O)CSc2nc3ccc(NC(=O)c4ccccc4)cc3s2)cc1 [compound 157] | + (Compounds with a TI of <1 were labelled as +)
2 | COc1ccc(NC(=O)CSc2nc3ccc(NC(=O)c4ccccc4)cc3s2)cc1 [compound 57] | ++ (compounds with a TI of 1 to 5 were labelled as ++)
3 | CCOc1ccc(NC(=O)CSc2nc3ccc(NC(=O)c4cccc(C)c4)cc3s2)cc1 [compound 2] | +++ (compounds with a TI of >5 were labeled as +++)
4 | COc1ccc(NC(=O)CSc2nc3ccc(NC(=O)c4cccc5ccccc45)cc3s2)cc1 [compound 108] | ++ (compounds with a TI of 1 to 5 were labelled as ++)
5 | COc1ccc(NC(=O)CSc2nc3ccc(NC(=O)c4cccc(Cl)c4)cc3s2)cc1 [compound 79] | ++ (compounds with a TI of 1 to 5 were labelled as ++)
6 | Cc1cc(C)c(NC(=O)C(C)Sc2nc3ccc(NC(=O)c4ccccc4C)cc3s2)c(C)c1 (centres unmarked) [compound 144] | + (Compounds with a TI of <1 were labelled as +)
7 | COc1ccccc1C(=O)Nc1ccc2nc(SCC(=O)Nc3cc(C)cc(C)c3)sc2c1 [compound 147] | + (Compounds with a TI of <1 were labelled as +)
8 | O=C(CSc1nc2ccc(NC(=O)c3ccccc3)cc2s1)NC[C@H]1CCCO1 [compound 8] | +++ (compounds with a TI of >5 were labeled as +++)
9 | CCCCOc1ccc(NC(=O)CSc2nc3ccc(NC(=O)c4ccccc4Br)cc3s2)cc1 [compound 50] | ++ (compounds with a TI of 1 to 5 were labelled as ++)
10 | Cc1ccc(NC(=O)CSc2nc3ccc(NC(=O)c4ccc(C)cc4)cc3s2)cc1 [compound 145] | + (Compounds with a TI of <1 were labelled as +)
11 | COc1ccc(C(=O)Nc2ccc3nc(SCC(=O)Nc4ccccc4Cl)sc3c2)cc1 [compound 63] | ++ (compounds with a TI of 1 to 5 were labelled as ++)
12 | Cc1ccccc1C(=O)Nc1ccc2nc(SCC(=O)Nc3ccc(F)cc3)sc2c1 [compound 20] | +++ (compounds with a TI of >5 were labeled as +++)
13 | O=C(CSc1nc2ccc(NC(=O)c3ccccc3)cc2s1)Nc1ccccc1 [compound 142] | + (Compounds with a TI of <1 were labelled as +)
14 | COc1ccccc1NC(=O)CSc1nc2ccc(NC(=O)c3ccc(C)cc3)cc2s1 [compound 39] | ++ (compounds with a TI of 1 to 5 were labelled as ++)
15 | COc1ccccc1C(=O)Nc1ccc2nc(SCC(=O)Nc3ccccc3Cl)sc2c1 [compound 170] | + (Compounds with a TI of <1 were labelled as +)
16 | COc1ccc(C(=O)Nc2ccc3nc(SCC(=O)Nc4cccc(C)c4)sc3c2)cc1 [compound 83] | ++ (compounds with a TI of 1 to 5 were labelled as ++)
17 | CCOc1ccc(NC(=O)CSc2nc3ccc(NC(=O)c4ccccc4)cc3s2)cc1 [compound 166] | + (Compounds with a TI of <1 were labelled as +)
18 | CS(=O)(=O)c1cccc(C(=O)Nc2ccc3nc(SCC(=O)Nc4ccc(F)cc4)sc3c2)c1 [compound 174] | +++ (compounds with a TI of >5 were labeled as +++)
19 | CS(=O)(=O)c1ccc(C(=O)Nc2ccc3nc(SCC(=O)Nc4cccc(S(N)(=O)=O)c4)sc3c2)cc1F [compound 173] | ++ (compounds with a TI of 1 to 5 were labelled as ++)
20 | COc1ccc(NC(=O)CSc2nc3ccc(NC(=O)c4ccccc4OC)cc3s2)cc1 [compound 101] | ++ (compounds with a TI of 1 to 5 were labelled as ++)
21 | Cc1ccccc1C(=O)Nc1ccc2nc(SCC(=O)NCCOc3ccccc3)sc2c1 [compound 93] | ++ (compounds with a TI of 1 to 5 were labelled as ++)
22 | CCOc1ccc(C(=O)Nc2ccc3nc(SCC(N)=O)sc3c2)cc1 [compound 91] | ++ (compounds with a TI of 1 to 5 were labelled as ++)
23 | Cc1cc(C)c(NC(=O)CSc2nc3ccc(NC(=O)c4ccccc4Cl)cc3s2)c(C)c1 [compound 58] | ++ (compounds with a TI of 1 to 5 were labelled as ++)
